Data: BigSolDB 2.1

CN(C)/C=C/C(=O)c1cccnc1
solubility (mole fraction) (in 1,4-dioxane, 288.15 K): 0.0331
solubility (mole fraction) (in 1,4-dioxane, 293.15 K): 0.0357
solubility (mole fraction) (in 1,4-dioxane, 298.15 K): 0.0388
solubility (mole fraction) (in 1,4-dioxane, 303.15 K): 0.0427
solubility (mole fraction) (in 1,4-dioxane, 308.15 K): 0.048
solubility (mole fraction) (in 1,4-dioxane, 313.15 K): 0.054
solubility (mole fraction) (in 1,4-dioxane, 318.15 K): 0.061
solubility (mole fraction) (in 1,4-dioxane, 323.15 K): 0.0692
solubility (mole fraction) (in 1,4-dioxane, 328.15 K): 0.0779
solubility (mole fraction) (in DMF, 278.15 K): 0.0897
solubility (mole fraction) (in DMF, 283.15 K): 0.112
solubility (mole fraction) (in DMF, 288.15 K): 0.142
solubility (mole fraction) (in DMF, 293.15 K): 0.175
solubility (mole fraction) (in DMF, 298.15 K): 0.209
solubility (mole fraction) (in DMF, 303.15 K): 0.249
solubility (mole fraction) (in DMF, 308.15 K): 0.293
solubility (mole fraction) (in DMF, 313.15 K): 0.348
solubility (mole fraction) (in DMF, 318.15 K): 0.408
solubility (mole fraction) (in DMF, 323.15 K): 0.482
solubility (mole fraction) (in DMF, 328.15 K): 0.588
solubility (mole fraction) (in THF, 278.15 K): 0.021
solubility (mole fraction) (in THF, 283.15 K): 0.0216
solubility (mole fraction) (in THF, 288.15 K): 0.0225
solubility (mole fraction) (in THF, 293.15 K): 0.0239
solubility (mole fraction) (in THF, 298.15 K): 0.0257
solubility (mole fraction) (in THF, 303.15 K): 0.0279
solubility (mole fraction) (in THF, 308.15 K): 0.0304
solubility (mole fraction) (in THF, 313.15 K): 0.033
solubility (mole fraction) (in THF, 318.15 K): 0.0358
solubility (mole fraction) (in THF, 323.15 K): 0.0391
solubility (mole fraction) (in THF, 328.15 K): 0.0428
solubility (mole fraction) (in acetone, 278.15 K): 0.00872
solubility (mole fraction) (in acetone, 283.15 K): 0.00917
solubility (mole fraction) (in acetone, 288.15 K): 0.00987
solubility (mole fraction) (in acetone, 293.15 K): 0.0108
solubility (mole fraction) (in acetone, 298.15 K): 0.0117
solubility (mole fraction) (in acetone, 303.15 K): 0.0127
solubility (mole fraction) (in acetone, 308.15 K): 0.0138
solubility (mole fraction) (in acetone, 313.15 K): 0.0149
solubility (mole fraction) (in acetone, 318.15 K): 0.0164
solubility (mole fraction) (in acetone, 323.15 K): 0.0178
solubility (mole fraction) (in acetone, 328.15 K): 0.0197
solubility (mole fraction) (in cyclohexane, 283.15 K): 0.00098
solubility (mole fraction) (in cyclohexane, 288.15 K): 0.00114
solubility (mole fraction) (in cyclohexane, 293.15 K): 0.00147
solubility (mole fraction) (in cyclohexane, 298.15 K): 0.00183
solubility (mole fraction) (in cyclohexane, 303.15 K): 0.00228
solubility (mole fraction) (in cyclohexane, 308.15 K): 0.00284
solubility (mole fraction) (in cyclohexane, 313.15 K): 0.0034
solubility (mole fraction) (in cyclohexane, 318.15 K): 0.00408
solubility (mole fraction) (in cyclohexane, 323.15 K): 0.00493
solubility (mole fraction) (in cyclohexane, 328.15 K): 0.0061
solubility (mole fraction) (in ethyl acetate, 278.15 K): 0.0131
solubility (mole fraction) (in ethyl acetate, 283.15 K): 0.014
solubility (mole fraction) (in ethyl acetate, 288.15 K): 0.0152
solubility (mole fraction) (in ethyl acetate, 293.15 K): 0.0163
solubility (mole fraction) (in ethyl acetate, 298.15 K): 0.018
solubility (mole fraction) (in ethyl acetate, 303.15 K): 0.02
solubility (mole fraction) (in ethyl acetate, 308.15 K): 0.0228
solubility (mole fraction) (in ethyl acetate, 313.15 K): 0.0259
solubility (mole fraction) (in ethyl acetate, 318.15 K): 0.0295
solubility (mole fraction) (in ethyl acetate, 323.15 K): 0.0338
solubility (mole fraction) (in ethyl acetate, 328.15 K): 0.0382
solubility (mole fraction) (in methanol, 278.15 K): 0.0255
solubility (mole fraction) (in methanol, 283.15 K): 0.0278
solubility (mole fraction) (in methanol, 288.15 K): 0.0304
solubility (mole fraction) (in methanol, 293.15 K): 0.034
solubility (mole fraction) (in methanol, 298.15 K): 0.0379
solubility (mole fraction) (in methanol, 303.15 K): 0.0427
solubility (mole fraction) (in methanol, 308.15 K): 0.0476
solubility (mole fraction) (in methanol, 313.15 K): 0.0533
solubility (mole fraction) (in methanol, 318.15 K): 0.0588
solubility (mole fraction) (in methanol, 323.15 K): 0.0648
solubility (mole fraction) (in methanol, 328.15 K): 0.0715
solubility (mole fraction) (in n-propanol, 278.15 K): 0.0185
solubility (mole fraction) (in n-propanol, 283.15 K): 0.0207
solubility (mole fraction) (in n-propanol, 288.15 K): 0.0233
solubility (mole fraction) (in n-propanol, 293.15 K): 0.0261
solubility (mole fraction) (in n-propanol, 298.15 K): 0.0298
solubility (mole fraction) (in n-propanol, 303.15 K): 0.0331
solubility (mole fraction) (in n-propanol, 308.15 K): 0.0371
solubility (mole fraction) (in n-propanol, 313.15 K): 0.0408
solubility (mole fraction) (in n-propanol, 318.15 K): 0.0465
solubility (mole fraction) (in n-propanol, 323.15 K): 0.0529
solubility (mole fraction) (in n-propanol, 328.15 K): 0.0604
